Laboratory results taken from US20230117606A1, “COMPOSITIONS AND METHODS FOR THE TREATMENT OF INTRACELLULAR BACTERIAL INFECTIONS” (Endolytix Technology, Inc., priority 2020, published 2023).

System: M. abscessus
Assay: Cell growth assay of M. abscessus with ABIα and antibiotic, Fractional Inhibitory Concentration (FIC) index
Assay type: cell-based, Mycobacterium abscessus
Details: antibiotic in combination with ABIα; FIG. 5

## NCC[C@H](O)C(=O)N[C@@H]1C[C@H](N)[C@@H](O[C@H]2O[C@H](CN)[C@@H](O)[C@H](O)[C@H]2O)[C@H](O)[C@H]1O[C@H]1O[C@H](CO)[C@@H](O)[C@H](N)[C@H]1O [amikacin]
  effect by FIC index on attenuation of M. abscessus growth: synergistic effects

## C[C@@H](O)[C@H]1C(=O)N2C(C(=O)[O-])=C(SC3Cn4cnc[n+]4C3)[C@H](C)[C@H]12 (stereo partly drawn) [biapenem]
  effect by FIC index on attenuation of M. abscessus growth: synergistic effects

## CO[C@@]1(NC(=O)Cc2cccs2)C(=O)N2C(C(=O)O)=C(COC(N)=O)CS[C@@H]21 [cefoxitin]
  effect by FIC index on attenuation of M. abscessus growth: synergistic effects
